Kinase still bound, per cent of control data for twelve molecules are collected here from the kinase profiling compilation of Christmann-Franck et al. (2016).

Structures are written as SMILES.

What all share (assay): KINOMEscan competition binding
Common to all, as to details: compound 10.0 µM

Experiment [1] relates to RET (human), P07949 [V804L].
Experiment [2] deals with BMX (human), P51813 [V600E].
The test system of experiment [3] is EGFR (human), P00533 [L858R].
Experiment [4] relates to EGFR (human), P00533 [A750P; 747-749 del].
Experiment [5] relates to EGFR (human), P00533 [G719C].
In experiment [6] the test system is FGFR3 (human), P22607 [G697C].
In experiment [7] the test system is ABL1 (human), P00519 [F317L].
The subject of experiment [8] is FLT3 (human), P36888 [D835Y].
The subject of experiment [9] is ABL1 (human), P00519 [F317I].
Experiment [10] deals with PIK3CA (human), P42336 [H1047L].
Experiment [11] relates to LRRK2 (human), Q5S007 [G2019S].
Experiment [12] deals with KIT (human), P10721 [A829P].
The test system of experiment [13] is MET (human), P08581 [M1250T].
Experiment [14] has as its system KIT (human), P10721 [D816H].
The subject of experiment [15] is PIK3CA (human), P42336 [E542K].
For experiment [16], the system named is PIK3CA (human), P42336 [M1043I].
Sequence of PIK3CA (human), P42336 [M1043I] (P42336 whole entry M1043I, looked up): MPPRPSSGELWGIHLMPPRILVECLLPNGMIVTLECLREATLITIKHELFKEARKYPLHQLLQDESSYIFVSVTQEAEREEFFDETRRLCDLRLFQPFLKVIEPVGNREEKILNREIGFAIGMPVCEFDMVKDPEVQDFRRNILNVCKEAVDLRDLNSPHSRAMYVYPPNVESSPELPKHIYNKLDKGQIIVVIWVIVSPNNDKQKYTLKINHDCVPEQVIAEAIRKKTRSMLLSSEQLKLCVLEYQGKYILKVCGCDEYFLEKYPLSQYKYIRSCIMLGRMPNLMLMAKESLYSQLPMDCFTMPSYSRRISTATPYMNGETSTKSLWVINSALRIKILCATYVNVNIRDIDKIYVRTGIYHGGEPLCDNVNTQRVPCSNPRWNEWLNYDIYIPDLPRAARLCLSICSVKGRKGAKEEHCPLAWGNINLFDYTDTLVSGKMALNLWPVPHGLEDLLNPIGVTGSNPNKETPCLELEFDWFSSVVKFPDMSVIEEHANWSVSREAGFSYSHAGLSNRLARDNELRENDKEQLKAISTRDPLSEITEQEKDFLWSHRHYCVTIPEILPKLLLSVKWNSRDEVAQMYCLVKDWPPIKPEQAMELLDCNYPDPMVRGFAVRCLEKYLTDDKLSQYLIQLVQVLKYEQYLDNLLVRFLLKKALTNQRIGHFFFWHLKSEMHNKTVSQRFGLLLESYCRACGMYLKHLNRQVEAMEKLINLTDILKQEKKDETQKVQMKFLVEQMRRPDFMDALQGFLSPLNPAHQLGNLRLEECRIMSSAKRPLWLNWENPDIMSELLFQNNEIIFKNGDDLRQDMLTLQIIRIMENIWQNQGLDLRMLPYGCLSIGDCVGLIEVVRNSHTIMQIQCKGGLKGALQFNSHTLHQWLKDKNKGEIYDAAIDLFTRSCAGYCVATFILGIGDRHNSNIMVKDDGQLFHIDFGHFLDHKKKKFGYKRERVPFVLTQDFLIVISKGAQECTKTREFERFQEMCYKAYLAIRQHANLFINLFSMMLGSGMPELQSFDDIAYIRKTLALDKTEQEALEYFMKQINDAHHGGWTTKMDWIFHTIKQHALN

Sequence of KIT (human), P10721 [A829P] (P10721 whole entry A829P, looked up): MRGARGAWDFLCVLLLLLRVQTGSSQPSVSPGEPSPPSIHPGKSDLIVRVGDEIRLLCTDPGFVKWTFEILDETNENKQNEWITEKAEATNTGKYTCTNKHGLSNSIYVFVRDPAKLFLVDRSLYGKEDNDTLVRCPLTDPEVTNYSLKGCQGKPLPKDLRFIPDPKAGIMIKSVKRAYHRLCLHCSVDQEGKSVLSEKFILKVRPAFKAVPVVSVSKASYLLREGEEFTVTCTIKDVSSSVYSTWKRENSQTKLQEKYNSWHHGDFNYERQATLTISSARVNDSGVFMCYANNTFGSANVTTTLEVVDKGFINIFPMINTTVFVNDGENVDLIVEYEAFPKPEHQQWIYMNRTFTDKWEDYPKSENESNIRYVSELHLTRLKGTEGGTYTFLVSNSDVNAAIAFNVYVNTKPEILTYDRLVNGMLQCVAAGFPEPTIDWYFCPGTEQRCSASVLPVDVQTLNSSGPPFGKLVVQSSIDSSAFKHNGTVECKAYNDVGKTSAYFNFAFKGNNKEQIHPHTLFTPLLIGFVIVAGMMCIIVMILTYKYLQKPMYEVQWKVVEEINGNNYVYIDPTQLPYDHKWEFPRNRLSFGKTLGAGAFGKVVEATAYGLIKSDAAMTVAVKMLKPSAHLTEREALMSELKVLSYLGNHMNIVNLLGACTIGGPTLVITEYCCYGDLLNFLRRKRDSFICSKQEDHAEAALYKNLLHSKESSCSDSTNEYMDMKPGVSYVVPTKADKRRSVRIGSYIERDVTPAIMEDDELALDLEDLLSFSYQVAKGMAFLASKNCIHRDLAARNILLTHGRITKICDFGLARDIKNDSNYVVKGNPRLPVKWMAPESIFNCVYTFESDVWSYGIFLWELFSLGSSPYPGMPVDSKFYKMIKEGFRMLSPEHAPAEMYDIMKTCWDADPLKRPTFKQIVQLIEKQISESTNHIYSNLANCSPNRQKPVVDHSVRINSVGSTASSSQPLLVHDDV
Sequence of LRRK2 (human), Q5S007 [G2019S] (Q5S007 whole entry G2019S, looked up): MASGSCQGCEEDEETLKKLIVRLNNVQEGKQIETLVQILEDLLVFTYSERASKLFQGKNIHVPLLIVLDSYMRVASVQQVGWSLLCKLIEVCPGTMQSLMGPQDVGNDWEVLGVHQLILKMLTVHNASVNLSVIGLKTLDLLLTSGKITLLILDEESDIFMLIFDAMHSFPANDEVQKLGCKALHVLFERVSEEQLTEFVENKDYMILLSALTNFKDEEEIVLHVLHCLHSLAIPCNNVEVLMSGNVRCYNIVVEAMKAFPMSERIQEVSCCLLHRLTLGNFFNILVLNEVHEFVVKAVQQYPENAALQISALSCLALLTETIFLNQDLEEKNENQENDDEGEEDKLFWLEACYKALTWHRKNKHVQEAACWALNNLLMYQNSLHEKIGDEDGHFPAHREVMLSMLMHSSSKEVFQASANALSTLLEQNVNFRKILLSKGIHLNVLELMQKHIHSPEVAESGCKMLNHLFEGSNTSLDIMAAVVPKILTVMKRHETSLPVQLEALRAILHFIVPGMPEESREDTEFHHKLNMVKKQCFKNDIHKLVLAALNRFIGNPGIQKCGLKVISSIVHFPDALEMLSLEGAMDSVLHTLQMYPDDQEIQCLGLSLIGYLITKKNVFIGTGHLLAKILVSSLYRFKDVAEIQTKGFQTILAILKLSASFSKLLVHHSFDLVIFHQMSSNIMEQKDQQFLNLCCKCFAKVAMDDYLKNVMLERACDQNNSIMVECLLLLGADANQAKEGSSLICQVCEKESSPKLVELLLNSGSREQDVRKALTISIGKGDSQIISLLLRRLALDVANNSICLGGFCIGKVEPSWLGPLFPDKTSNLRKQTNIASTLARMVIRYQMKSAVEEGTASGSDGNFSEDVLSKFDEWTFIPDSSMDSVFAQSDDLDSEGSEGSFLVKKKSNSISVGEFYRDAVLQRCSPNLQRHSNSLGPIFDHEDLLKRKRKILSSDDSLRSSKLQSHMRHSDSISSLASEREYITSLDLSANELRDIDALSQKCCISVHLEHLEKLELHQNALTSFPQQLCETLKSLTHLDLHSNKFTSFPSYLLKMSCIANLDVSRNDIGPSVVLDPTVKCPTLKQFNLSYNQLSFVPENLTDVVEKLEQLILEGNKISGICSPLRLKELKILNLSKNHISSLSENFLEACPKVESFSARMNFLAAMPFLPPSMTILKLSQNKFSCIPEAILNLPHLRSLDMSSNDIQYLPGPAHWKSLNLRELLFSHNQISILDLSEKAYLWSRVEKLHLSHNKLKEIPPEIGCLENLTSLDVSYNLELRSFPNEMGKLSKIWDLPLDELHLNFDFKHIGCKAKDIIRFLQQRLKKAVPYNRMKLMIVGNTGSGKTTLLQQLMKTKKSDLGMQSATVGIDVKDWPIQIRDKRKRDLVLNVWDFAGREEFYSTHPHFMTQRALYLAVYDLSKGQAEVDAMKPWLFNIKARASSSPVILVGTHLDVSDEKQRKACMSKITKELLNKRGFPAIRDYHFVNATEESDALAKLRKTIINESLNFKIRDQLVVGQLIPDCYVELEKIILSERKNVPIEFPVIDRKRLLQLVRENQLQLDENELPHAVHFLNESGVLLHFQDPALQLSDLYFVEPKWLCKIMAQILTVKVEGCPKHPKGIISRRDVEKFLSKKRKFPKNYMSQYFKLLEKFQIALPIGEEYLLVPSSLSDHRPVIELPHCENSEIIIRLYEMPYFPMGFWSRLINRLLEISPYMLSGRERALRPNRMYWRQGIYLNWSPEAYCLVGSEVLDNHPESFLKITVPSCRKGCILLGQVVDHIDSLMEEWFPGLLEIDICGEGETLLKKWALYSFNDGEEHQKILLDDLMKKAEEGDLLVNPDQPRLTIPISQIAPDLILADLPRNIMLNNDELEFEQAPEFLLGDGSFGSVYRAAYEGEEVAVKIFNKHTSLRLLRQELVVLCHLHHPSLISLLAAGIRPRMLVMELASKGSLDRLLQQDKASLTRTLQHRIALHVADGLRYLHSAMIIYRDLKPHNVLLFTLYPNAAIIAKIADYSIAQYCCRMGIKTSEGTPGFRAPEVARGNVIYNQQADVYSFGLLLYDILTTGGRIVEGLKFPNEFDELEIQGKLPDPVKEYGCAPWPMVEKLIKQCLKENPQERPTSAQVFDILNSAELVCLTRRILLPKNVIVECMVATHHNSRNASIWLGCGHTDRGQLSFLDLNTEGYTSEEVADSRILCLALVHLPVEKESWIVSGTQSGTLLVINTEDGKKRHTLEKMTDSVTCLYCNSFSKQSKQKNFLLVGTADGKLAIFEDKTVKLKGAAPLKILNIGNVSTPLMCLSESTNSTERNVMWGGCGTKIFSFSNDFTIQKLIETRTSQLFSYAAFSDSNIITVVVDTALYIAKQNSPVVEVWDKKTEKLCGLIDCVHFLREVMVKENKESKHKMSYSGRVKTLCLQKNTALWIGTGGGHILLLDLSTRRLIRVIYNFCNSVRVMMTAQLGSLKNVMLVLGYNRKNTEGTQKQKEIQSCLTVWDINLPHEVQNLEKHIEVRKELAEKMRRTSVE
Sequence of PIK3CA (human), P42336 [E542K] (P42336 whole entry E542K, looked up): as the sequence (P42336 whole entry M1043I, looked up) above, with E542K, I1043M counted along it
Sequence of PIK3CA (human), P42336 [H1047L] (P42336 whole entry H1047L, looked up): as the sequence (P42336 whole entry M1043I, looked up) above, with I1043M, H1047L counted along it
Sequence of KIT (human), P10721 [D816H] (P10721 whole entry D816H, looked up): as the sequence (P10721 whole entry A829P, looked up) above, with D816H, P829A counted along it

In the case of `COc1cc(C(=O)NC2CCN(C)CC2)ccc1Nc1ncc2c(n1)N(C1CCCC1)C(C)CC(=O)N2C` (centres undefined), the kinase still bound, per cent of control in [1], in experiment [2], in experiment [3], in experiment [4], in [5] and in experiment [6] was 100% each time. Moreover, the kinase still bound, per cent of control in experiment [7], in experiment [8] and in experiment [9] was 100% each time.
For the molecule `CC[C@@H]1C(=O)N(C)c2cnc(Nc3ccc(C(=O)NC4CCN(C)CC4)cc3OC)nc2N1C1CCCC1`, the kinase still bound, per cent of control in experiment [1], in experiment [2], in experiment [6], in experiment [7], in [8] and in experiment [9] was 100% each time.
With `O=c1cc(N2CCOCC2)oc2c(-c3cccc4c3sc3ccccc34)cccc12`, the kinase still bound, per cent of control in experiment [1] was found to be 100%; in experiment [10], 4.4%; in experiment [11], 100%; in experiment [12], 96%; in [2] it was 95%; in [3], 89%. The kinase still bound, per cent of control in [13] was 67%; in experiment [4], 91%; in experiment [5], 100%; in [14], 100%; in [6], 94%; in experiment [15] it was 27%. The results for the kinase still bound, per cent of control in experiment [16] and in [8] were 17% and 79%, respectively.
As to `CCOc1cc2ncc(C#N)c(Nc3ccc(OCc4ccccn4)c(Cl)c3)c2cc1NC(=O)/C=C/CN(C)C`, the kinase still bound, per cent of control in experiment [1] was 100%; in [10], 100%; in experiment [11] it was 85%; in experiment [12], 100%; in experiment [2] it was 100%; in [13], 47%. Also, the kinase still bound, per cent of control in experiment [14] was 88%; in experiment [6] it was 100%; in [15], 100%; in [16] it was 100%; in [7], 100%.
As for `Cc1n[nH]c2ccc(-c3cncc(OC[C@@H](N)Cc4c[nH]c5ccccc45)c3)cc12`, the kinase still bound, per cent of control in [1] worked out at 12%; in experiment [2] it was 100%; in [6], 100%; in experiment [7], 100%; in experiment [8], 0.2%; in experiment [9], 100%.
Turning to `CCN1CCN(C(=O)Cc2ccc(Nc3ncc(F)c(Nc4ccc(C(=O)Nc5ccccc5Cl)cc4)n3)cc2)CC1`, the kinase still bound, per cent of control in experiment [1] came out at 3.2%; in [10], 100%; in experiment [11], 53%; in experiment [12] it was 64%; in experiment [2], 43%; in [3] it was 28%. The kinase still bound, per cent of control in [13] came to 11%; in [4] it was 11%; in experiment [5], 46%; in [14], 25%; in [6], 21%; in experiment [15], 84%. For the same molecule, the results for the kinase still bound, per cent of control in [16] and in experiment [8] were 100% and 0.15%, respectively.
Take `O=C1NC(=O)/C(=C/c2ccc3nccc(-c4ccncc4)c3c2)S1`: the kinase still bound, per cent of control is 100% in experiment [1]; 27% in experiment [10]; 58% in experiment [11]; 88% in experiment [12]; 41% in experiment [2]; 43% in experiment [3]. Besides, the kinase still bound, per cent of control in experiment [13] came out at 40%; in experiment [4] it was 47%; in experiment [5], 54%; in [14] it was 89%; in experiment [6] it was 100%; in experiment [15], 0.2%. The kinase still bound, per cent of control was 0% in experiment [16] and 28% in experiment [8].
Turning to `O=C1Nc2ccc(I)cc2/C1=C/c1cc(Br)c(O)c(Br)c1`, the kinase still bound, per cent of control came to 100% in experiment [1]; 97% in experiment [10]; 9% in experiment [11]; 93% in experiment [12]; 0.1% in experiment [2]; 32% in experiment [3]. For the same molecule, the kinase still bound, per cent of control in experiment [13] is 80%; in [4], 36%; in experiment [5], 80%; in experiment [14] it was 99%; in experiment [6], 76%; in [15], 84%. Further, the kinase still bound, per cent of control in experiment [16] is 76%; in experiment [8], 13%.
For the molecule `COc1cc(N2CCN(C)CC2)ccc1Nc1nc(N)c(C(=O)c2c(Cl)cccc2Cl)s1`, the kinase still bound, per cent of control in experiment [1] amounted to 100%; in [10], 100%; in experiment [11] it was 97%; in experiment [12], 81%; in [2], 100%; in experiment [3], 100%. For the same molecule, the kinase still bound, per cent of control was determined as 100% in [13]; 100% in experiment [4]; 91% in experiment [5]; 86% in experiment [14]; 100% in [6]; 100% in experiment [15]. Besides, the kinase still bound, per cent of control in experiment [16] and in experiment [8] was 100% each time.
For `CN(C)C/C=C/C(=O)Nc1cccc(Nc2ncc3c(n2)N(C)c2ccccc2C(=O)N3C)c1`, the kinase still bound, per cent of control in experiment [1] stood at 0.15%; in experiment [10] it was 16%; in [11], 6.1%; in experiment [12], 40%; in experiment [2], 59%; in [3] it was 73%. In addition, the kinase still bound, per cent of control amounted to 43% in experiment [13]; 71% in experiment [4]; 14% in experiment [5]; 33% in experiment [14]; 12% in experiment [6]; 39% in experiment [15]. The kinase still bound, per cent of control in [16] is 39%; in experiment [8], 1.4%.
For `Cc1ccc(NC(=O)c2cccc(C(C)(C)C#N)c2)cc1Nc1ccc2ncn(C)c(=O)c2c1`, the kinase still bound, per cent of control is 31% in experiment [1]; 100% in experiment [10]; 69% in [11]; 100% in experiment [12]; 0% in [2]; 48% in experiment [3]. The kinase still bound, per cent of control in experiment [13] stood at 64%; in experiment [4], 11%; in experiment [5] it was 49%; in experiment [14], 57%; in experiment [6], 100%; in experiment [15], 100%. The kinase still bound, per cent of control in [16] amounted to 89%; in [8] it was 100%.
Turning to `C=CC(=O)Nc1cccc(Nc2nc(N[C@H]3CC[C@H](N(C)C)CC3)nc3c2ncn3C(C)C)c1`, the kinase still bound, per cent of control worked out at 80% in [1]; 100% in experiment [10]; 45% in experiment [11]; 23% in [12]; 85% in experiment [2]; 99% in [3]. Moreover, the kinase still bound, per cent of control amounted to 100% in experiment [13]; 76% in experiment [4]; 79% in experiment [5]; 27% in experiment [14]; 99% in experiment [6]; 100% in experiment [15]. Further, the kinase still bound, per cent of control in [16] was determined as 100%; in experiment [8], 0.85%.
